Legend:
NF-κB = NF-κB nuclear translocation and DNA binding (nuclear extracts, EMSA); format: cell-based, human
Experimental: Confluent cultures of U87 cells were grown in complete medium and then left untreated or treated with 10 ng/mL TNFα for 20 m and 1 h+/−16 h pre-treatment with 100 μM TMZ (or 0.1% DMSO control vehicle). Cells were then washed with 10 mL ice-cold PBS, scraped from the dish, and pelleted by centrifugation at 1000 rpm for 5 m at 4° C. Cell pellets were resuspended in 400 μl of ice-cold buffer A (10 mM HEPES, pH 7.9; 10 mM KCl; 0.1 mM EDTA; 1 mM DTT; 0.5 mM phenylmethysulfonylfluoride [PMSF]; 1 μg/mL leupeptin; 5 μg/mL aprotinin) and allowed to swell on ice for 15 m. Following the addition of 25 μl of 10% NP-40, the suspension was vortexed for 10 s and centrifuged at 14,500 rpm for 1 m at 4° C. Nuclei were resuspended in 50 μl of ice-cold buffer B (20 mM HEPES, pH 7.9; […]; 1 mM EDTA; 1 mM DTT; 1 mM PMSF; 25% glycerol; 1 μg/mL leupeptin; 5 μg/mL aprotinin) and incubated on ice for 15 m. […] Protein concentrations for each sample were determined by the Bradford method (Bio-Rad, Richmond, Calif., USA) and were adjusted to 2 μg/μl by the addition of buffer B. […]
20 μg of whole U87 cell (or nuclear) lysate was subjected to sodium dodecyl sulfate (SDS)-polyacrylamide gel electrophoresis (PAGE). […] Immunoreactive bands were detected by SuperSignal enhanced chemiluminescence (ECL) (Pierce, Rockford, Ill., USA) and exposed to Kodak X-Omat film.

p65 = experiment: TNFα-induced p65 phosphorylation (Western blot); format: cell-based, human
Experimental: 20 μg of whole U87 cell (or nuclear) lysate was subjected to sodium dodecyl sulfate (SDS)-polyacrylamide gel electrophoresis (PAGE). Following electro-transfer, Immobilon-P membranes (Millipore Corp. Burlington, Mass., USA.) were probed with primary polyclonal antibody against IκBα, phospho-Ser32-IκBα, SAPK/JNK, phospho-Thr183/Tyr185-SAPK/JNK, p65, phospho-Ser536-p65 (Cell Signaling Technology Inc. Beverly, […]., USA) diluted 1:1000 overnight at 4° C. Anti-rabbit IgG HRP-linked secondary antibody (Cell Signaling Technology) was diluted 1:1000 in blocking buffer and applied for 1 h at room temperature. Immunoreactive bands were detected by SuperSignal enhanced chemiluminescence (ECL) (Pierce, Rockford, Ill., USA) and exposed to Kodak X-Omat film.

[1] = test system: NF-κB in Panel pancreatic cancer cells; experiment: NF-κB-responsive luciferase reporter assay, Panel; format: cell-based, human
[2] = test system: U87 cells infected with Ad.Egr-TNF; experiment: TNFα induction in vitro (Quantikine ELISA of conditioned media); format: cell-based, human
Experimental: 10^6 U87 cells were plated and incubated overnight. The cells were then infected with Ad.Egr-TNF at a multiplicity of infection (MOI) of 100 for 3 h at 37° C. After incubation, 3.8 mL of complete media with or without TMZ was added. Conditioned media were harvested at 48 h after treatment and human TNFα production was quantified using a Quantikine ELISA kit (R&D System Inc., Minneapolis, Minn.).

U87 hindlimb xenografts = experiment: TNFα induction in vivo in hindlimb xenografts; design: species or system nude mice
Experimental: U87 cells (5×10^6) in […] were injected subcutaneously (sc) into the right hindlimb of nude mice. When tumors reached an average size of 200 mm^3 (length×width×thickness/2), the tumor-bearing mice were randomized into 4 groups: 1. Untreated Control (UTC); 2. Ad.Egr-TNF alone; 3. TMZ alone; 4. Ad.Egr-TNF and TMZ. Ad.Egr-TNF was injected intratumorally (IT) at a dose of 2×10^8 particle units (pu) each day. Two doses of TMZ were given: 2.5 mg/kg/day and 5 mg/kg/day by intraperitoneal (IP) injection 3 h after vector. Four consecutive daily IT and IP injections were given, control animals received IT and IP serum free medium (SFM). Animals were euthanized on day 2 and 4 (i.e., 48 h and 96 h after treatment initiation), tumors harvested, snap-frozen in liquid nitrogen and homogenized in RIPA buffer (150 mM NaCl, 10 mM Tris at pH 7.5, 5 mM EDTA at pH 7.5, […], 1 μg/mL leupeptin, and 2 μg/mL aprotinin). Protein was isolated and concentration measured using Protein Assay reagent (Bio-Rad Laboratories, Hercules, Calif.). TNFα levels in the supernatants were measured as described above.

[3] = test system: NF-κB in Seg-1 esophageal cancer cells; experiment: NF-κB-responsive luciferase reporter assay, Seg-1; format: cell-based, human

Question: Which “TNFα-induced NF-κB DNA binding” value (NF-κB) does the source give for Cn1nnc2c(C(N)=O)ncn2c1=O [TMZ, temozolomide] here?
Answer: does not directly affect

Question: And the “TNFα-induced NF-κB nuclear translocation” value (NF-κB; glioma cells)?
Answer: inhibiting NF-κB nuclear translocation

Question: And the “TNFα-induced p65 phosphorylation” value (p65)?
Answer: inhibits

Question: What about the “TNFα-induced NF-κB transcriptional activity” value [1] of the same compound?
Answer: activated

Question: And the “TNFα detection in vitro” value [2]?
Answer: TNFα was detected

Question: What about the “increase in TNFα expression compared to cells infected with vector alone” value ([2]; U87 cells infected with Ad.Egr-TNF (MOI 100), 100 μM TMZ, 48 h) of the same compound?
Answer: 2.3 fold

Question: What about the “TNF detection in vivo” value (U87 hindlimb xenografts) of the same compound?
Answer: No TNF was detected

Question: What about the “TNFα-induced NF-κB transcriptional activity” value [3] of the same compound?
Answer: activated
